Molecules are shown by their SMILES. Numbered stars: 1 amine (or outer) side, 2 acyl side, 3 side chain; on linkers, the order of the positions; unused ones are H or OH. Bridge positions count the residues as written; N and C are the ends. Square brackets hold non-standard residues; d marks the D form. Peptide text beside a SMILES is read from it. * marks the point of attachment. C20 diacid = O=C(O)CCCCCCCCCCCCCCCCCCC(=O)*; γGlu = O=C(O)[C@H](CCC(=O)[*:2])N[*:1]; Hyp = O=C(O)[C@@H]1C[C@@H](O)CN1

One experiment concerns the target T1, hAMY3 receptor (Homo sapiens, UniProt O60896+P30988).
T1 sequence (P30988 25-474): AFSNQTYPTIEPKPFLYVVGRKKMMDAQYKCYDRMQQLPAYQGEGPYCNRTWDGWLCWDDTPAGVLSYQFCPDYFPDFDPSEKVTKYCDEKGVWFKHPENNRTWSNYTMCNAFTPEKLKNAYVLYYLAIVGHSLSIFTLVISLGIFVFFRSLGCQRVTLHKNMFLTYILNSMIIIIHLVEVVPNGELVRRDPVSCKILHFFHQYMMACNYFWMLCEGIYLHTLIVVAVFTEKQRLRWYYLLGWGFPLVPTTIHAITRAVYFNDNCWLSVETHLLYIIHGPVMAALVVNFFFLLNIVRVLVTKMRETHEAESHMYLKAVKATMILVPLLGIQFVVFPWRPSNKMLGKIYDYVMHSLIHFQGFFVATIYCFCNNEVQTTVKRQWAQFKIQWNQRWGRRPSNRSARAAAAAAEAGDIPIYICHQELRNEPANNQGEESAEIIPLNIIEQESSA
T1 sequence (O60896 24-148 partner): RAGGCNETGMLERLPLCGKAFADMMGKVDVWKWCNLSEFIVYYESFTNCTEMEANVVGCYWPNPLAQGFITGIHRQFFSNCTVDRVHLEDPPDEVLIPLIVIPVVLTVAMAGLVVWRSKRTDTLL
Description: cAMP assay for in vitro receptor activation, hAMY3-R. It counts as cell-based. The settings on record: cAMP assay, hAMY3 receptor; read-out: hAMY3R EC50. A digest of the protocol:
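Accumulated cAMP was detected by time-resolved FRET one hour after reagent addition. Beforehand, hAMY3-R-overexpressing monoclonal cells (2000/well, DPBS, 0.05% casein, 0.5 mM IBMX) received graded doses of compound for 30 min at room temperature; human amylin served as positive control.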

For a further experiment, the target named is hAM1 receptor (Homo sapiens, UniProt O60895+Q16602). As to the kind of experiment: cAMP assay for in vitro receptor activation, hAM1-R. In kind it is cell-based. The conditions noted are these: cAMP assay, hAM1 receptor; read-out: hAM1R EC50. A digest of the protocol: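 A subcloned monoclonal line stably expressing hAM1 receptor is thawed and plated at 8000 cells/well. The assay buffer is DPBS with 0.05% casein and 0.5 mM IBMX, and receptor activation is followed by cAMP levels.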
hAM1 receptor, sequence (Q16602 23-461): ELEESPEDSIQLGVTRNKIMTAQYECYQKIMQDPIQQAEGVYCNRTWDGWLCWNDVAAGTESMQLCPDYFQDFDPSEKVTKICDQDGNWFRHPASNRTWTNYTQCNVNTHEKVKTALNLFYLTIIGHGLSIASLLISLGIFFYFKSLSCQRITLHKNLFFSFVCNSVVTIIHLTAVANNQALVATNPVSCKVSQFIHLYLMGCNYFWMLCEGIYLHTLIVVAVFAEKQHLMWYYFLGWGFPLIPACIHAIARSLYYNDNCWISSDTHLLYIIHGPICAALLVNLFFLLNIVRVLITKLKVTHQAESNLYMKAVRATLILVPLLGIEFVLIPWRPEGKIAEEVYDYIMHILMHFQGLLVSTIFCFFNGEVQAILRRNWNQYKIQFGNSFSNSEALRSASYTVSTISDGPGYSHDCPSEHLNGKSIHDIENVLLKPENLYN
hAM1 receptor, sequence (O60895 43-175 partner): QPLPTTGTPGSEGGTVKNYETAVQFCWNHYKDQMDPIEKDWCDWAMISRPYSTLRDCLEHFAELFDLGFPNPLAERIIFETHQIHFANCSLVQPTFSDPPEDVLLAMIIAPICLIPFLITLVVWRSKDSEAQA

With `CC[C@H](C)[C@H](NC(=O)[C@H](CCC(N)=O)NC(=O)[C@H](CCC(=O)O)NC(=O)[C@H](C)NC(=O)[C@H](CC(C)C)NC(=O)[C@H](CCCNC(=N)N)NC(=O)[C@H](CCC(N)=O)NC(=O)[C@@H](NC(=O)[C@@H](NC(=O)[C@@H]1CSSC[C@H](NC(=O)[C@H](CCCCN)NC(=O)CC[C@H](NC(=O)CCCCCCCCCCCCCCCCCCC(=O)O)C(=O)O)C(=O)N[C@@H](CC(N)=O)C(=O)N[C@@H]([C@@H](C)O)C(=O)N[C@@H](C)C(=O)N[C@@H]([C@@H](C)O)C(=O)N1)[C@@H](C)O)C(C)C)C(=O)N[C@@H](Cc1ccc(O)cc1)C(=O)N[C@@H](CCC(N)=O)C(=O)N[C@@H](Cc1ccccc1)C(=O)N[C@H](C(=O)N[C@@H](CC(=O)O)C(=O)N[C@@H](CCCCN)C(=O)N[C@@H](CC(=O)O)C(=O)N[C@@H](CCCCN)C(=O)N[C@@H](C)C(=O)N[C@@H](CC(N)=O)C(=O)N[C@H](C(=O)N[C@@H](C)C(=O)N1CCC[C@H]1C(=O)N1CCC[C@H]1C(=O)N[C@H](C(=O)N[C@@H](CC(N)=O)C(=O)N[C@H](C(=O)NCC(=O)N[C@@H](CO)C(=O)N[C@@H](CC(N)=O)C(=O)NCC(=O)N1C[C@H](O)C[C@H]1C(N)=O)C(C)C)[C@@H](C)O)C(C)C)[C@@H](C)O` [compound 108] ({C20 diacid-γGlu}-KCNTATCTVQRLAEQIYQFTDKDKANVAPPTNVGSNG[Hyp]-NH2; disulfide 2-7), the values for the EC50 at hAMY3 receptor and on hAM1 receptor were 0.019 nM and above 5000 nM, respectively.

With `CC[C@H](C)[C@H](NC(=O)[C@H](CCC(N)=O)NC(=O)[C@H](Cc1c[nH]cn1)NC(=O)[C@H](C)NC(=O)[C@H](CC(C)C)NC(=O)[C@H](CCCNC(=N)N)NC(=O)[C@H](CCC(N)=O)NC(=O)[C@@H](NC(=O)[C@@H](NC(=O)[C@@H]1CSSC[C@H](NC(=O)[C@H](CCCCN)NC(=O)CC[C@H](NC(=O)CCCCCCCCCCCCCCCCCCC(=O)O)C(=O)O)C(=O)N[C@@H](CC(N)=O)C(=O)N[C@@H]([C@@H](C)O)C(=O)N[C@@H](C)C(=O)N[C@@H]([C@@H](C)O)C(=O)N1)[C@@H](C)O)C(C)C)C(=O)N[C@@H](CCC(=O)O)C(=O)N[C@@H](CCC(N)=O)C(=O)N[C@@H](Cc1ccccc1)C(=O)N[C@H](C(=O)N[C@@H](CC(=O)O)C(=O)N[C@@H](CCCCN)C(=O)N[C@@H](CC(=O)O)C(=O)N[C@@H](CCCCN)C(=O)N[C@@H](CC(=O)O)C(=O)N[C@@H](CC(N)=O)C(=O)N[C@H](C(=O)N[C@@H](C)C(=O)N1CCC[C@H]1C(=O)N1CCC[C@H]1C(=O)N[C@H](C(=O)N[C@@H](CC(N)=O)C(=O)N[C@H](C(=O)NCC(=O)N[C@@H](CO)C(=O)N[C@@H](CC(N)=O)C(=O)NCC(=O)N1C[C@H](O)C[C@H]1C(N)=O)C(C)C)[C@@H](C)O)C(C)C)[C@@H](C)O` [compound 110] ({C20 diacid-γGlu}-KCNTATCTVQRLAHQIEQFTDKDKDNVAPPTNVGSNG[Hyp]-NH2; disulfide 2-7), the EC50 on hAMY3 receptor was 0.02 nM; at hAM1 receptor, above 5000 nM.

The values are drawn from US12139520B2 (priority 2020, dated 2024).
